Assay results from publication PMC6677016, “Biochemical and structural explorations of α-hydroxyacid oxidases reveal a four-electron oxidative decarboxylation reaction” (Acta Crystallographica. Section D, Structural Biology, 2019).
Numbering of substitutions follows the chain as printed. Names and notes keep the numbering of the source. Blank lines part the entries; values can stand above or below the molecule they belong to.

Key:
[1] = molecular target: T1, p-Hydroxymandelate oxidase (Hmo) (Amycolatopsis orientalis, UniProt O52792); assay: crystal structure ([…] Å); assay type: binding
T1 construct: N-terminally His6-tagged protein

[2] = molecular target: T1, p-Hydroxymandelate oxidase (Hmo); assay: crystal structure ([…] Å); assay type: binding; remark: listed apart in the source
[3] = molecular target: T2, p-Hydroxymandelate oxidase (Hmo) Y128F mutant (Amycolatopsis orientalis, UniProt O52792, Y128F); assay: crystal structure ([…] Å) and ITC; assay type: binding
T2 construct: N-terminally His6-tagged protein
T2 sequence (O52792 1-357 Y128F): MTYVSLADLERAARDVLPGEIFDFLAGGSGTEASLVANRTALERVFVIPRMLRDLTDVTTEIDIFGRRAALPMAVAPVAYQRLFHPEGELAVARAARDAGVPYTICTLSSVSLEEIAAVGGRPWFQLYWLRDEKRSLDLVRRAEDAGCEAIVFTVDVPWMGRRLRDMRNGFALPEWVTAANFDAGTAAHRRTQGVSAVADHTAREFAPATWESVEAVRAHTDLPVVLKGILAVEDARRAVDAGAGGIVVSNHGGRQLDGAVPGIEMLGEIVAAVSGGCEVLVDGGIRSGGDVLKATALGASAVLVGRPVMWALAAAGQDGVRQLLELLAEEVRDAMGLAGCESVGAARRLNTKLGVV

[4] = molecular target: T1, p-Hydroxymandelate oxidase (Hmo); assay: crystal structure ([…] Å) and ITC; assay type: binding
[5] = molecular target: T2, p-Hydroxymandelate oxidase (Hmo) Y128F mutant; assay: crystal structure ([…] Å); assay type: binding
[6] = molecular target: T2, p-Hydroxymandelate oxidase (Hmo) Y128F mutant; assay: crystal structure ([…] Å); assay type: binding; remark: listed apart in the source
[7] = molecular target: T1, p-Hydroxymandelate oxidase (Hmo); assay: crystal structure ([…] Å); assay type: binding; remark: listed apart in the source
[8] = molecular target: T2, p-Hydroxymandelate oxidase (Hmo) Y128F mutant; assay: crystal structure ([…] Å); assay type: binding; remark: listed apart in the source
purified protein = substrate: O=C(O)[C@@H](O)c1ccccc1; assay: purified protein; conditions: FMN anchored by Tyr128, Arg163, His252 and Arg255; α-H points towards N5 of the isoalloxazine ring
[9] = molecular target: the molecule itself; assay: crystal structure; hanging-drop vapor diffusion at 20°C, 35% Tascimate, 0.1 M bis-Tris propane pH 7.0; space group I422, one chain in the asymmetric unit, dimer by a crystallographic twofold axis

Molecule: O=C(O)[C@@H](O)c1ccc(O)cc1 [4HSMA, 4-hydroxy-(S)-mandelate]
- crystal structure (1.32 Å) [1]: complex with 4-hydroxy-(S)-mandelate, 5zzq

- crystal structure (1.40 Å) [2]: complex with benzoate, 5zzs
Molecule: O=C(O)c1ccccc1 [BA, benzoate]

Molecule: O=C(O)C(=O)c1ccccc1 [BF, benzoylformate]
- Kd [3]: 1400 µM
- Kd [4]: 1900 µM

Molecule: O=C(O)C(=O)Cc1ccccc1 [PPY, phenylpyruvate]
- crystal structure (1.45 Å) [5]: The Y128F mutant liganded with phenylpyruvate, an oxidized product, when soaked with phenyllactate

Molecule: O=C(O)[C@H](O)c1ccccc1 [RMA, (R)-mandelate]
- crystal structure (1.50 Å) [6]: When the Y128F mutant is bound by (R)-mandelate, the structural conformation is similar to that of (S)-mandelate

Molecule: C[C@H](C(=O)O)c1ccccc1 [SPPA, (S)-2-phenylpropionate]
- crystal structure (1.60 Å) [7]: (S)-2-phenylpropionate (inhibitor) all adopt a ‘V’ conformation with the carboxyl group orthogonal to the plane of the phenyl ring
- crystal structure (1.65 Å) [8]: complex with 2-phenylpropanoate, 6a0d

B1: p-Hydroxymandelate oxidase (Hmo) from Amycolatopsis orientalis, wild type (enzyme)
chain: T2 sequence (O52792 1-357 Y128F)
notes: p-hydroxymandelate oxidase (Hmo, orf22), amplified from Amycolatopsis orientalis genomic DNA and subcloned into pET-28a(+) (NdeI/XhoI); one chain in the asymmetric unit, the dimer made by a crystallographic twofold axis; also called (S)-p-hydroxymandelate oxidase; WT Hmo; source: E. coli BL21(DE3), purified (Ni-NTA, size-exclusion chromatography)
- Km (purified protein): 160 µM
- stoichiometry N [9]: 2

B2: p-Hydroxymandelate oxidase (Hmo) Y128F mutant (enzyme, Amycolatopsis orientalis)
chain: T2 sequence (O52792 1-357 Y128F) with Y128F
notes: p-hydroxymandelate oxidase (Hmo, orf22) of Amycolatopsis orientalis in pET-28a(+), point mutant made by QuikChange on the wild-type hmo gene; Purified by the same protocol as wild-type Hmo; source: E. coli BL21(DE3), purified (Ni-NTA, size-exclusion chromatography)
- stoichiometry N [9]: 2
